Test results as given in ChEMBL document CHEMBL5500384, “New synergistic benzoquinone scaffolds as inhibitors of mycobacterial cytochrome bc1 complex to treat multi-drug resistant tuberculosis” (Eur J Med Chem, 2024).
In brackets after ≈: the same amount, converted by molar mass. Activity calls are given as the source filed them. The calls are words filed in the database; no cut-off is given here.

Assays:
[1] = system: Mycolicibacterium smegmatis; assay: Antibacterial activity against Mycobacterium smegmatis ATCC 14468 assessed as reduction in bacterial growth at 3 ug/ml measured every 6 hrs by spectrometry analysis; assay type: functional, organism-based; conditions: dose 3.0 µg/ml
[2] = Acute toxicity in Albino mouse assessed as change in monocytes at 50 to 2000 mg/kg, po measured after 14 days (reference value: 1%); assay type: organism-based; conditions: in vivo, 336 h, dose 50-2000 mg/kg, time 14 day
[3] = system: Mycolicibacterium smegmatis; assay: Antibacterial activity against Mycobacterium smegmatis ATCC 14468 assessed as log2 fold change in cytochrome bc1 complex Rieske-iron-sulfur subunit expression at 3 ug/ml incubated for 12 hrs by mass spectrometric analysis; assay type: functional; conditions: dose 3 µg/ml
[4] = system: Mycolicibacterium smegmatis; assay: Antibacterial activity against Mycobacterium smegmatis ATCC 14468 assessed as log2 fold change in ABC transporter ATP binding protein expression at 3 ug/ml incubated for 12 hrs by mass spectrometric analysis; assay type: functional; conditions: dose 3 µg/ml
[5] = system: Mycolicibacterium smegmatis; assay: Antibacterial activity against Mycobacterium smegmatis ATCC 14468 assessed as log2 fold change in TrkA expression at 3 ug/ml incubated for 12 hrs by mass spectrometric analysis; assay type: functional; conditions: dose 3 µg/ml
[6] = system: Mycolicibacterium smegmatis; assay: Antibacterial activity against Mycobacterium smegmatis ATCC 14468 assessed as log2 fold change in dihydroorotate dehydrogenase expression at 3 ug/ml incubated for 12 hrs by mass spectrometric analysis; assay type: functional; conditions: dose 3 µg/ml
[7] = system: Mycolicibacterium smegmatis; assay: Antibacterial activity against Mycobacterium smegmatis ATCC 14468 assessed as log2 fold change in PknH_C domain-containing protein expression at 3 ug/ml incubated for 12 hrs by mass spectrometric analysis; assay type: functional; conditions: dose 3 µg/ml
[8] = Cytotoxicity against african green monkey Vero cells assessed as cell viability at 3.125 ug/ml by MTT assay; assay type: toxicity, cell-based; conditions: chlorocebus sabaeus, at 3.125 µg/mL, read-out: Activity
[9] = system: Mycolicibacterium smegmatis; assay: Antibacterial activity against Mycobacterium smegmatis ATCC 14468 assessed as log2 fold change in NADH-quinone oxidoreductase subunit C expression at 3 ug/ml incubated for 12 hrs by mass spectrometric analysis; assay type: functional; conditions: dose 3 µg/ml
[10] = system: Mycolicibacterium smegmatis; assay: Antibacterial activity against Mycobacterium smegmatis ATCC 14468 assessed as log2 fold change in l-tyrosine metabolite level by mass spectrometry analysis; assay type: functional
[11] = system: Mycobacterium tuberculosis; assay: Antitubercular activity against Mycobacterium tuberculosis H37Rv incubated for 5 days by microtiter plate method; assay type: functional; conditions: 120 h, time 5 day
[12] = Renal toxicity in Albino mouse assessed as structural absorbability abnormalities at 50 to 2000 mg/kg, po measured after 14 days; assay type: organism-based; conditions: in vivo, 336 h, dose 50-2000 mg/kg, time 14 day
[13] = system: Mycolicibacterium smegmatis; assay: Antibacterial activity against Mycobacterium smegmatis ATCC 14468 assessed as log2 fold change in GluD expression at 3 ug/ml incubated for 12 hrs by mass spectrometric analysis; assay type: functional; conditions: dose 3 µg/ml
[14] = system: Mycolicibacterium smegmatis; assay: Antibacterial activity against Mycobacterium smegmatis ATCC 14468 assessed as log2 fold change in membrane transport protein expression at 3 ug/ml incubated for 12 hrs by mass spectrometric analysis; assay type: functional; conditions: dose 3 µg/ml
[15] = Renal toxicity in Albino mouse assessed as change in distal convoluted tubules at 50 to 2000 mg/kg, po measured after 14 days; assay type: organism-based; conditions: in vivo, 336 h, dose 50-2000 mg/kg, time 14 day
[16] = Pulmonary toxicity in Albino mouse assessed as appearance of goblet cells at 50 to 2000 mg/kg, po measured after 14 days; assay type: organism-based; conditions: in vivo, 336 h, dose 50-2000 mg/kg, time 14 day
[17] = Acute toxicity in Albino mouse assessed as change in ESR at 50 to 2000 mg/kg, po measured after 14 days (reference value: 10 millimeter); assay type: organism-based; conditions: in vivo, 336 h, dose 50-2000 mg/kg, time 14 day
[18] = system: Mycolicibacterium smegmatis; assay: Antibacterial activity against Mycobacterium smegmatis ATCC 14468 assessed as log2 fold change in histidine kinase expression at 3 ug/ml incubated for 12 hrs by mass spectrometric analysis; assay type: functional; conditions: dose 3 µg/ml
[19] = Renal toxicity in Albino mouse assessed as extravasation of RBC at 50 to 2000 mg/kg, po measured after 14 days; assay type: organism-based, Erythrocyte; conditions: in vivo, 336 h, dose 50-2000 mg/kg, time 14 day
[20] = Acute toxicity in Albino mouse assessed as change in RBC count measured per million cells at 50 to 2000 mg/kg, po measured after 14 days (reference value: 9.15 microL); assay type: organism-based, Erythrocyte; conditions: in vivo, 336 h, dose 50-2000 mg/kg, time 14 day
[21] = Hepatotoxicity in Albino mouse assessed as change in hepatocytes at 50 to 2000 mg/kg, po measured after 14 days; assay type: toxicity, organism-based; conditions: in vivo, 336 h, dose 50-2000 mg/kg, time 14 day
[22] = Hepatotoxicity in Albino mouse assessed as change in hepatic artery at 50 to 2000 mg/kg, po measured after 14 days; assay type: toxicity, organism-based, Liver; conditions: in vivo, 336 h, dose 50-2000 mg/kg, time 14 day
[23] = system: Mycolicibacterium smegmatis; assay: Antibacterial activity against Mycobacterium smegmatis ATCC 14468 assessed as log2 fold change in TnpC protein expression at 3 ug/ml incubated for 12 hrs by mass spectrometric analysis; assay type: functional; conditions: dose 3 µg/ml
[24] = Pulmonary toxicity in Albino mouse assessed as change in alveolar sacs at 50 to 2000 mg/kg, po measured after 14 days; assay type: organism-based; conditions: in vivo, 336 h, dose 50-2000 mg/kg, time 14 day
[25] = system: Mycolicibacterium smegmatis; assay: Antibacterial activity against Mycobacterium smegmatis ATCC 14468 assessed as log2 fold change in adenosine metabolite level by mass spectrometry analysis; assay type: functional
[26] = Acute toxicity in Albino mouse assessed as mortality at 2000 mg/kg, po after 2 to 4 hrs; assay type: organism-based; conditions: in vivo, time 2-4 hrs
[27] = Hepatotoxicity in Albino mouse assessed as change in central vein at 50 to 2000 mg/kg, po measured after 14 days; assay type: toxicity, organism-based; conditions: in vivo, 336 h, dose 50-2000 mg/kg, time 14 day
[28] = system: Mycolicibacterium smegmatis; assay: Antibacterial activity against Mycobacterium smegmatis ATCC 14468 assessed as log2 fold change in shikimate transporter expression at 3 ug/ml incubated for 12 hrs by mass spectrometric analysis; assay type: functional; conditions: dose 3 µg/ml
[29] = system: Mycolicibacterium smegmatis; assay: Antibacterial activity against Mycobacterium smegmatis ATCC 14468 assessed as log2 fold change in cytochrome bd-type quinol oxidase, subunit 1 expression at 3 ug/ml incubated for 12 hrs by mass spectrometric analysis; assay type: functional; conditions: dose 3 µg/ml
[30] = Acute toxicity in po dosed Albino mouse assessed as mortality after 14 days; assay type: organism-based; conditions: in vivo, time 14 day
[31] = Cytotoxicity against african green monkey Vero cells assessed as cell viability at 100 ug/ml by MTT assay; assay type: toxicity, cell-based; conditions: chlorocebus sabaeus, at 100 µg/mL, read-out: Activity
[32] = system: Mycolicibacterium smegmatis; assay: Antibacterial activity against Mycobacterium smegmatis ATCC 14468 assessed as log2 fold change in l-Glutamic acid metabolite level by mass spectrometry analysis; assay type: functional
[33] = Acute toxicity in Albino mouse assessed as change in ALP level at 50 to 2000 mg/kg, po measured after 14 days (reference value: 28 IU/L); assay type: organism-based; conditions: in vivo, 336 h, dose 50-2000 mg/kg, time 14 day
[34] = Acute toxicity in Albino mouse assessed as change in platelet count at 50 to 2000 mg/kg, po measured after 14 days (reference value: 3.24 mm3); assay type: organism-based; design: unit not given here; conditions: in vivo, 336 h, dose 50-2000 mg/kg, time 14 day
[35] = system: Mycolicibacterium smegmatis; assay: Antibacterial activity against Mycobacterium smegmatis ATCC 14468 assessed as log2 fold change in DppB expression at 3 ug/ml incubated for 12 hrs by mass spectrometric analysis; assay type: functional; conditions: dose 3 µg/ml
[36] = system: Mycolicibacterium smegmatis; assay: Antibacterial activity against Mycobacterium smegmatis ATCC 14468 assessed as log2 fold change in 24-methylenecholesterol metabolite level by mass spectrometry analysis; assay type: functional
[37] = Hepatotoxicity in Albino mouse assessed as change in bile duct at 50 to 2000 mg/kg, po measured after 14 days; assay type: toxicity, organism-based, Liver; conditions: in vivo, 336 h, dose 50-2000 mg/kg, time 14 day
[38] = Acute toxicity in Albino mouse assessed as change in LDH level at 50 to 2000 mg/kg, po measured after 14 days (reference value: 1052 IU/L); assay type: organism-based; conditions: in vivo, 336 h, dose 50-2000 mg/kg, time 14 day
[39] = system: Mycolicibacterium smegmatis; assay: Antibacterial activity against Mycobacterium smegmatis ATCC 14468 assessed as log2 fold change in L-(-)-methionine metabolite level by mass spectrometry analysis; assay type: functional

| Structure (SMILES) | Activity [1] | Activity [2] [%] | log2FC [3] | log2FC [4] | log2FC [5] | log2FC [6] | log2FC [7] | viability at 3.125 ug/ml [8] [%] | log2FC [9] | log2FC [10] | MIC [11] [µM] | Activity [12] | log2FC [13] | log2FC [14] | Activity [15] | Activity [16] | Activity [17] [millimeter/hr] | log2FC [18] | Activity [19] | Activity [22] | other results |
| --- | --- | --- | --- | --- | --- | --- | --- | --- | --- | --- | --- | --- | --- | --- | --- | --- | --- | --- | --- | --- | --- |
| COc1ccc(C2C(Cl)C(=O)N2C2=C(Cl)C(=O)c3ccccc3C2=O)cc1 (configuration not stated) | inactive | 1 | 1.4 | -1.98 | -6.64 | -1.89 | -6.64 | 100 | -1.9 | -1.68 | 31.1 (≈ 12.5 µg/mL) | Non-Toxic | -1.11 | -6.64 | Non-Toxic | Non-Toxic | 15 | -6.64 | Non-Toxic | Non-Toxic | Activity [20]: 9.4; Activity [21]: Non-Toxic; log2FC [23]: -6.64; Activity [24]: Non-Toxic; log2FC [25]: -2.55; Activity [26]: Toxic; Activity [27]: Non-Toxic; log2FC [28]: -6.64; log2FC [29]: 5.6; LD50 at 336 h [30]: 50 mg/kg; viability at 100 ug/ml [31]: 0.7%; log2FC [32]: -1.49; Activity [33]: 44 IU/L; Activity [34]: 5.82; log2FC [35]: -6.64; log2FC [36]: 1.74; Activity [37]: Non-Toxic; Activity [38]: 842 IU/L; log2FC [39]: -5.44 |
| CN(C)c1ccc(C2C(Cl)C(=O)N2C2=C(Cl)C(=O)c3ccccc3C2=O)cc1 (configuration not stated) | inactive | 1 | 1.61 | -6.64 | -6.64 | -1.47 | -6.64 | 100 | -1.41 | -1.13 | 15.1 (≈ 6.25 µg/mL) | Non-Toxic | -1.78 | -6.64 | Non-Toxic | Non-Toxic | 16 | -6.64 | Non-Toxic | Non-Toxic | Activity [20]: 9.67; log2FC [23]: -6.64; Activity [24]: Non-Toxic; log2FC [25]: -1.69; Activity [26]: Toxic; Activity [27]: Non-Toxic; log2FC [28]: -6.64; log2FC [29]: 5.66; LD50 at 336 h [30]: 300 mg/kg; viability at 100 ug/ml [31]: 10.2%; log2FC [32]: -0.85; Activity [33]: 52 IU/L; Activity [34]: 6.22; log2FC [35]: -6.64; log2FC [36]: 0.69; Activity [37]: Non-Toxic; Activity [38]: 756 IU/L; log2FC [39]: -4.48 |
| O=C1C(Cl)=C(Cl)C(=O)c2ccccc21 [Dichlon] | inactive | 1 | 6.64 | -2.17 | -6.64 | -1.92 | -6.64 | 100 | -2.08 | -1.18 | 13.8 (≈ 3.12 µg/mL) | Non-Toxic | -3.7 | -1.79 | Non-Toxic | Non-Toxic | 20 | -6.64 | Non-Toxic | Non-Toxic | Activity [21]: Non-Toxic; log2FC [23]: -2.19; Activity [24]: Non-Toxic; log2FC [25]: -1.31; Activity [27]: Non-Toxic; log2FC [28]: -6.64; log2FC [29]: 5.6; viability at 100 ug/ml [31]: 28.7%; log2FC [32]: -1.59; Activity [33]: 33 IU/L; log2FC [35]: -6.64; log2FC [36]: 2.01; Activity [37]: Non-Toxic; Activity [38]: 1030 IU/L; log2FC [39]: -3.97 |
